Reference: publication PMC5574609, “Potential role of an antimicrobial peptide, KLK in inhibiting lipopolysaccharide-induced macrophage inflammation” (PLoS ONE, 2017)
Bridge positions count the residues as written; N and C are the ends. Ends that are not written are not given here. Peptide text beside a SMILES is read from it.

Columns and labels:
Format in all cases: cell-based, murine
[1] = test system: NO production in LPS-stimulated RAW 264.7 cells; test: LPS-stimulated NO production (nitrite, Griess); conditions: peptide 1 µg/mL, LPS 1 µg/mL, 48 h, mean ± SD
Procedure: (§1) RAW 264.7 cells at 1×10^5 cells/well were stimulated with 1 μg/mL LPS (Escherichia coli 0111:B4; Sigma, St. Louis, MO, USA) in the presence or absence of various concentrations of the test peptide and then incubated at 37°C in 5% CO2 for 48 h. Indomethacin (10 μM; Sigma, St. Louis, MO, USA) was included as a positive control. Where appropriate, cells were pre-incubated with the test peptide for 1 h, and washed three times with sterile PBS before incubation with LPS (1 μg/mL; Sigma). Culture supernatant was collected and the nitrite (a stable breakdown product of NO) accumulated in culture supernatant was then determined by the Griess reagent system (Promega, Madison, USA). Briefly, 50 μL of culture supernatant was mixed with an equal volume of 1% sulfanilamide in 5% phosphoric acid. After incubation for 10 min at room temperature, 50 μL of 0.1% N-1-napthylethylenediamine dihydrochloride was added and incubated for another 10 min at room temperature. The absorbance was measured at 540 nm using a microplate reader (Rayto RT-2100C, China) and nitrite concentrations were determined using a sodium nitrite standard curve. The PGE2 levels in culture medium were quantified by enzyme-immunoassay (R&D Systems, Minneapolis, MN, USA) according to the manufacturer’s instructions.

[2] = test system: TNF-α production in LPS-stimulated RAW 264.7 cells; test: TNF-α production, sandwich ELISA; conditions: LPS 1 µg/mL, 72 h, mean ± SD
Procedure: (§2) The pro-inflammatory cytokines (IL-1β and TNF-α)were determined by sandwich enzyme-linked immunosorbent assay (ELISA). RAW 264.7 cells (1×10^5 cells/well) were seeded into a 96-well microtiter plate (Nunc™) and stimulated with LPS (1 μg/mL; Sigma) in the presence or absence of each peptide at different concentrations. After 72 h of incubation, the culture supernatant was collected and cytokine concentrations measured using ELISA MAX™ Deluxe Set (BioLegend, San Diego, CA, USA), following the manufacturer’s protocol.

[3] = test system: NO production in LPS-stimulated RAW 264.7 cells; test: Pre-treatment with or without wash, then LPS; NO by Griess; conditions: 10 µg/mL pre-treatment 1 h, washed, LPS 1 µg/mL 48 h
Procedure: as §1, with “Briefly, 50 μL of culture supernatant was mixed with an equal volume of 1% sulfanilamide in 5% phosphoric acid. After incubation for 10 min at room temperature, 50 μL of 0.1% N-1-napthylethylenediamine dihydrochloride was added and incubated for another 10 min at room temperature.” left out
To investigate whether the ability of KLK peptide to inhibit LPS-induced signaling was due to KLK-LPS binding, experiments were performed in which RAW 264.7 cells were pre-treated with the KLK peptide for 1 h and then thoroughly washed to remove exogenous peptide. The cells were subsequently stimulated with LPS and pro-inflammatory mediator (NO) measured in cell-free supernatant after 48 hr. […]

[4] = test system: IL-1β production in LPS-stimulated RAW 264.7 cells; test: IL-1β production, sandwich ELISA; conditions: LPS 1 µg/mL, 72 h, mean ± SD
Procedure: as §2

[5] = test system: PGE2 production in LPS-stimulated RAW 264.7 cells; test: PGE2 production, enzyme-immunoassay; conditions: LPS 1 µg/mL + indomethacin 10 µM, 48 h
Procedure: as §1, with “Sigma,” for “RAW 264.7 cells at 1×10^5 cells/well were stimulated with 1 μg/mL LPS (Escherichia coli 0111:B4; Sigma,”, “Where appropriate, cells were pre-incubated with the test peptide for 1 h, and washed three times with sterile PBS before incubation with LPS (1 μg/mL;” left out, “After incubation for 10 min at room temperature, 50 μL of 0.1% N-1-napthylethylenediamine dihydrochloride was added and incubated for another 10 min at room temperature.” left out

CKLKLLLLLKLKC (disulfide 1-13 (inferred)) [SSKLK, KLK with cysteine residues added to both N and C-terminal ends]
inhibitory rate of LPS-stimulated NO production [1]: 70.77 ± 1.55%
IC50 for TNF-α production [2]: 1.79 ± 0.01 µg/mL

polymyxin B [PMB]
effect of removing exogenous compound by washing before LPS on NO inhibition [3]: significantly affected

CC(C)C[C@@H]1NC(=O)[C@H](CCCCN)NC(=O)[C@H](CC(C)C)NC(=O)[C@H](CC(C)C)NC(=O)[C@H](CC(C)C)NC(=O)[C@H](CC(C)C)NC(=O)[C@H](CC(C)C)NC(=O)[C@H](CCCCN)NC(=O)[C@H](CC(C)C)NC(=O)[C@H](CCCCN)NC(=O)[C@H](CCCCN)NC1=O [CYCKLK] (HELM PEPTIDE1{K.L.K.L.L.L.L.L.K.L.K}$PEPTIDE1,PEPTIDE1,1:R1-11:R2$$$V2.0)
inhibitory rate of LPS-stimulated NO production [1]: 79.26 ± 3.17%
IC50 for IL-1β production [4]: 8.83 ± 1.31 µg/mL
IC50 for TNF-α production [2]: 0.91 ± 0.07 µg/mL

COc1ccc2c(c1)c(CC(=O)O)c(C)n2C(=O)c1ccc(Cl)cc1 [Indomethacin]
PGE2 ([5]; exp. 1): 783.5 pg/mL
PGE2 ([5]; exp. 2): 716 pg/mL
PGE2 ([5]; mean of n = 2): 749.7 pg/mL
